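Interpolation was linear, between the two tested concentrations surrounding the appropriate level; five concentrations were tested over 48 hours in 96-well plates. GI50 marks 50% less growth. TGI marks complete inhibition of growth.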
Columns and labels:
Assay in all cases: NCI tumour cell line growth inhibition, 48 h
SK-OV-3 ovarian = system: SK-OV-3 ovarian
DU-145 prostate = system: DU-145 prostate
ACHN renal = system: ACHN renal
T-47D breast = system: T-47D breast
NCI-H226 lung = system: NCI-H226 lung
M14 melanoma = system: M14 melanoma
HS 578T breast = system: HS 578T breast
SNB-19 CNS = system: SNB-19 CNS
SF-539 CNS = system: SF-539 CNS
OVCAR-4 ovarian = system: OVCAR-4 ovarian
A498 renal = system: A498 renal
UO-31 renal = system: UO-31 renal
SNB-75 CNS = system: SNB-75 CNS
U251 CNS = system: U251 CNS
TK-10 renal = system: TK-10 renal
HOP-62 NSCLC = system: HOP-62 NSCLC
RPMI-8226 leukemia = system: RPMI-8226 leukemia
A549 NSCLC = system: A549 NSCLC
HCT-15 colon = system: HCT-15 colon
786-0 renal = system: 786-0 renal
IGROV1 ovarian = system: IGROV1 ovarian
OVCAR-3 ovarian = system: OVCAR-3 ovarian
KM12 colon = system: KM12 colon
HCT-116 colon = system: HCT-116 colon
RXF 393 renal = system: RXF 393 renal
UACC-257 melanoma = system: UACC-257 melanoma
OVCAR-8 ovarian = system: OVCAR-8 ovarian
MCF7 breast = system: MCF7 breast
COLO 205 colon = system: COLO 205 colon
SK-MEL-28 melanoma = system: SK-MEL-28 melanoma
NCI-H522 lung = system: NCI-H522 lung
MDA-MB-231 breast = system: MDA-MB-231 breast
HL-60(TB) leukemia = system: HL-60(TB) leukemia
NCI-H460 lung = system: NCI-H460 lung
SK-MEL-5 melanoma = system: SK-MEL-5 melanoma
MOLT-4 leukemia = system: MOLT-4 leukemia
HT29 colon = system: HT29 colon
MALME-3M melanoma = system: MALME-3M melanoma
LOX IMVI melanoma = system: LOX IMVI melanoma
EKVX NSCLC = system: EKVX NSCLC
HCC-2998 colon = system: HCC-2998 colon
PC-3 prostate = system: PC-3 prostate
OVCAR-5 ovarian = system: OVCAR-5 ovarian
BT-549 breast = system: BT-549 breast
CCRF-CEM leukemia = system: CCRF-CEM leukemia
SN12C renal = system: SN12C renal
SW-620 colon = system: SW-620 colon
NCI/ADR-RES ovarian = system: NCI/ADR-RES ovarian
SF-268 CNS = system: SF-268 CNS
SK-MEL-2 melanoma = system: SK-MEL-2 melanoma
MDA-MB-435 = system: MDA-MB-435
SR leukemia = system: SR leukemia
NCI-H23 lung = system: NCI-H23 lung
CAKI-1 renal = system: CAKI-1 renal
K-562 leukemia = system: K-562 leukemia
SF-295 CNS = system: SF-295 CNS
UACC-62 melanoma = system: UACC-62 melanoma

COc1ccc(CN2CCc3c(Sc4ccccc4)nc(N)nc3C2=O)c(OC)c1
GI50 (SK-OV-3 ovarian): 21.4 µM
TGI (SK-OV-3 ovarian): 84.6 µM
GI50 (DU-145 prostate): 8.57 µM
TGI (DU-145 prostate): 32.4 µM
GI50 (ACHN renal): 7.25 µM
TGI (ACHN renal): 52 µM
GI50 (T-47D breast): 3.99 µM
TGI (T-47D breast): 34.5 µM
GI50 (NCI-H226 lung): 8.55 µM
TGI (NCI-H226 lung): 27.1 µM
GI50 (M14 melanoma): 9.61 µM
TGI (M14 melanoma): 28.1 µM
GI50 (HS 578T breast): 16.3 µM
TGI (HS 578T breast): > 100 µM
GI50 (SNB-19 CNS): 15.4 µM
TGI (SNB-19 CNS): 55.3 µM
GI50 (SF-539 CNS): 14.4 µM
TGI (SF-539 CNS): 36.8 µM
GI50 (OVCAR-4 ovarian): 4.57 µM
TGI (OVCAR-4 ovarian): 18.3 µM
GI50 (A498 renal): 7.22 µM
TGI (A498 renal): 57.7 µM
GI50 (UO-31 renal): 1.45 µM
TGI (UO-31 renal): 12.8 µM
GI50 (SNB-75 CNS): 5.58 µM
TGI (SNB-75 CNS): 19.7 µM
GI50 (U251 CNS): 8.01 µM
TGI (U251 CNS): 27.4 µM
GI50 (TK-10 renal): 5 µM
TGI (TK-10 renal): 19.2 µM
GI50 (HOP-62 NSCLC): 18 µM
TGI (HOP-62 NSCLC): 73.4 µM
GI50 (RPMI-8226 leukemia): 1.89 µM
TGI (RPMI-8226 leukemia): 7.26 µM
GI50 (A549 NSCLC): 9.49 µM
TGI (A549 NSCLC): 45.8 µM
GI50 (HCT-15 colon): 8.32 µM
TGI (HCT-15 colon): 39.2 µM
GI50 (786-0 renal): 7.62 µM
TGI (786-0 renal): > 100 µM
GI50 (IGROV1 ovarian): 11 µM
TGI (IGROV1 ovarian): 28.9 µM
GI50 (OVCAR-3 ovarian): 4.25 µM
TGI (OVCAR-3 ovarian): 25.7 µM
GI50 (KM12 colon): 8.67 µM
TGI (KM12 colon): 32.7 µM
GI50 (HCT-116 colon): 3.9 µM
TGI (HCT-116 colon): 36.6 µM
GI50 (RXF 393 renal): 2.65 µM
TGI (RXF 393 renal): 9.74 µM
GI50 (UACC-257 melanoma): 5.99 µM
TGI (UACC-257 melanoma): 22.2 µM
GI50 (OVCAR-8 ovarian): 6.23 µM
TGI (OVCAR-8 ovarian): 30.5 µM
GI50 (MCF7 breast): 5.65 µM
TGI (MCF7 breast): 75.9 µM
GI50 (COLO 205 colon): 14.8 µM
TGI (COLO 205 colon): 47.9 µM
GI50 (SK-MEL-28 melanoma): 8.91 µM
TGI (SK-MEL-28 melanoma): 26.8 µM
GI50 (NCI-H522 lung): 3.05 µM
TGI (NCI-H522 lung): 17.7 µM
GI50 (MDA-MB-231 breast): 11 µM
TGI (MDA-MB-231 breast): 76.9 µM
GI50 (HL-60(TB) leukemia): 1.56 µM
TGI (HL-60(TB) leukemia): 5.32 µM
GI50 (NCI-H460 lung): 9.06 µM
TGI (NCI-H460 lung): > 100 µM
GI50 (SK-MEL-5 melanoma): 7.35 µM
TGI (SK-MEL-5 melanoma): 22.5 µM
GI50 (MOLT-4 leukemia): 3 µM
TGI (MOLT-4 leukemia): 16.1 µM
GI50 (HT29 colon): 7.61 µM
TGI (HT29 colon): 23.6 µM
GI50 (MALME-3M melanoma): 1.58 µM
TGI (MALME-3M melanoma): 8.87 µM
GI50 (LOX IMVI melanoma): 7.92 µM
TGI (LOX IMVI melanoma): 24.5 µM
GI50 (EKVX NSCLC): 4.32 µM
TGI (EKVX NSCLC): 19.9 µM
GI50 (HCC-2998 colon): 14.1 µM
TGI (HCC-2998 colon): 30.4 µM
GI50 (PC-3 prostate): 4.41 µM
TGI (PC-3 prostate): 29.1 µM
GI50 (OVCAR-5 ovarian): 39 µM
TGI (OVCAR-5 ovarian): > 100 µM
GI50 (BT-549 breast): 2.3 µM
TGI (BT-549 breast): 10.1 µM
GI50 (CCRF-CEM leukemia): 4.53 µM
TGI (CCRF-CEM leukemia): 52.9 µM
GI50 (SN12C renal): 8.82 µM
TGI (SN12C renal): > 100 µM
GI50 (SW-620 colon): 6.15 µM
TGI (SW-620 colon): 41.2 µM
GI50 (NCI/ADR-RES ovarian): 4.13 µM
TGI (NCI/ADR-RES ovarian): 29.9 µM
GI50 (SF-268 CNS): 6.21 µM
TGI (SF-268 CNS): 26 µM
GI50 (SK-MEL-2 melanoma): 10.1 µM
TGI (SK-MEL-2 melanoma): 32.6 µM
GI50 (MDA-MB-435): 3.57 µM
TGI (MDA-MB-435): 16.3 µM
GI50 (SR leukemia): 2.95 µM
TGI (SR leukemia): 22.6 µM
GI50 (NCI-H23 lung): 4.06 µM
TGI (NCI-H23 lung): 38.4 µM
GI50 (CAKI-1 renal): 3.4 µM
TGI (CAKI-1 renal): 18.3 µM
GI50 (K-562 leukemia): 4.3 µM
TGI (K-562 leukemia): > 100 µM
GI50 (SF-295 CNS): 8.35 µM
TGI (SF-295 CNS): 22.7 µM
GI50 (UACC-62 melanoma): 6.78 µM
TGI (UACC-62 melanoma): 21.4 µM

Reference: PubChem BioAssay (NCI)
